Results: patent publication US12428430B2 (BRISTOL-MYERS SQUIBB COMPANY, priority 2018, dated 2025)
pIC50: −log10 of the molar value.

The compounds below were run against hLPA1 (Homo sapiens, UniProt Q92633) (assay: LPA1 functional antagonist assay (LPA-induced calcium flux in CHO cells overexpressing human LPA1)). Settings: antagonist mode, inhibition of calcium flux induced by 10 nM LPA, read-out: hLPA1 IC50.
Assay type: cell-based
Parameters: expressed in transfected cells; host or cells: Chinese hamster ovary (CHO) cells
Method: The effectiveness of compounds of the present invention as LPA1 inhibitors can be determined in an LPA1 functional antagonist assay as follows:
Chinese hamster ovary cells overexpressing human LPA1 were plated overnight (15,000 cells/well) in poly-D-lysine coated 384-well microplates (Greiner bio-one, Cat #781946) in DMEM/F12 medium (Gibco, Cat #11039). Following overnight culture, cells were loaded with calcium indicator dye (AAT Bioquest Inc, Cat #34601) for 30 minutes at 37° C. The cells were then equilibrated to room temperature for 30 minutes before the assay. Test compounds solubilized in DMSO were transferred to 384 well non-binding surface plates (Corning, Cat #3575) using the Labcyte Echo acoustic dispense and diluted with assay buffer [1×HBSS with calcium/magnesium (Gibco Cat #14025-092), 20 mM HEPES (Gibco Cat #15630-080) and 0.1% fatty acid free BSA (Sigma Cat #A9205)] to a final concentration of 0.5% DMSO. Diluted compounds were added to the cells by FDSS6000 (Hamamatsu) at final concentrations ranging from 0.08 nM to 5 μM. and were then incubated for 20 min at room temperature at which time LPA (Avanti Polar Lipids Cat #857130C) was added at final concentrations of 10 nM to stimulate the cells. The compound IC50 value was defined as the concentration of test compound which inhibited 50% of the calcium flux induced by LPA alone. IC50 values were determined by fitting data to a 4-parameter logistic equation (GraphPad Prism, San Diego Calif.).

Sequence of hLPA1 (Q92633 whole entry): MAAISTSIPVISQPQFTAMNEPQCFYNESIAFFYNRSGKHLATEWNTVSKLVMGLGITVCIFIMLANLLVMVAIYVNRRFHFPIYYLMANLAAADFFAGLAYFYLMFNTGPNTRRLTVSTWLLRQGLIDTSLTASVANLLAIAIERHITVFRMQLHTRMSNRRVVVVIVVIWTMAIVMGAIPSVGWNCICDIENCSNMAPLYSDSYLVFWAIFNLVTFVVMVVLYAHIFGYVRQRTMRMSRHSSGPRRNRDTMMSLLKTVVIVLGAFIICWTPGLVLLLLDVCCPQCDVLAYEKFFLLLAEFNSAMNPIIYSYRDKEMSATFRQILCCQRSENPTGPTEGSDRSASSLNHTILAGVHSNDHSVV

`Cc1noc(-c2ccc(C34CCC(CC(=O)O)(CC3)OC4)c(F)c2)c1NC(=O)O[C@H](C)c1ccccc1Cl` [Example 18, 2-(4-(4-(4-((((R)-1-(2-chlorophenyl)ethoxy)carbonyl)amino)-3-methyl-isoxazol-5-yl)-2-fluorophenyl)-2-oxabicyclo[2.2.2]octan-1-yl)acetic acid] and `Cc1noc(-c2ccc(C34CCC(CC(=O)O)(CC3)OC4)cc2F)c1NC(=O)O[C@H](C)c1ccccc1Cl` [Example 22, 2-(4-(4-(4-((((R)-1-(2-chlorophenyl)ethoxy)carbonyl)amino)-3-methylisoxazol-5-yl)-3-fluorophenyl)-2-oxabicyclo[2.2.2]octan-1-yl)acetic acid] are within 0.2 log units of each other in pIC50: 7.25 for the first, 7.19 for the second.

Compared with `Cc1noc(-c2ccc(C34CCC(CC(=O)O)(CC3)OC4)cc2F)c1NC(=O)O[C@H](C)C1CC1` [Example 20, 2-(4-(4-(4-((((R)-1-cyclopropylethoxy)carbonyl)amino)-3-methylisoxazol-5-yl)-3-fluorophenyl)-2-oxabicyclo[2.2.2]octan-1-yl)acetic acid], `Cc1noc(-c2ccc(C34CCC(CC(=O)O)(CC3)OC4)cc2F)c1NC(=O)O[C@H](C)c1ccccc1` [Example 21, 2-(4-(3-fluoro-4-(3-methyl-4-((((R)-1-phenylethoxy)carbonyl)amino)isoxazol-5-yl)phenyl)-2-oxabicyclo[2.2.2]octan-1-yl)acetic acid] is 0.96 log units higher in pIC50: 6.06 for the first, 7.02 for the second. The second is the more potent here.

Going from `Cc1ccccc1[C@@H](C)OC(=O)Nc1c(C)noc1-c1ccc(C23CCC(CC(=O)O)(CC2)OC3)cc1F` [Example 23, 2-(4-(3-fluoro-4-(3-methyl-4-((((R)-1-(o-tolyl)ethoxy)carbonyl)amino)isoxazol-5-yl)phenyl)-2-oxabicyclo[2.2.2]octan-1-yl)acetic acid] to `Cc1cc(C23CCC(CC(=O)O)(CC2)OC3)ccc1-c1onc(C)c1NC(=O)O[C@H](C)c1ccccc1Cl` [Example 27, 2-(4-(4-(4-((((R)-1-(2-chlorophenyl)ethoxy)carbonyl)amino)-3-methyl-isoxazol-5-yl)-3-methylphenyl)-2-oxabicyclo[2.2.2]octan-1-yl)acetic acid], the pIC50 falls from 7.01 to 6.73 (0.28 log units).

`C[C@@H](OC(=O)Nc1c(-c2ccc(C34CCC(CC(=O)O)(CC3)OC4)cc2)cnn1C)c1ccccc1Cl` [Example 28, 2-(4-(4-(5-((((R)-1-(2-chlorophenyl)ethoxy)carbonyl)amino)-1-methyl-1H-pyrazol-4-yl)phenyl)-2-oxa-bicyclo[2.2.2]octan-1-yl)acetic acid] and `C[C@@H](OC(=O)Nc1c(-c2ccc(C34CCC(CC(=O)O)(CC3)OC4)c(F)c2)cnn1C)c1ccccc1Cl` [Example 31, 2-(4-(4-(5-((((R)-1-(2-chlorophenyl)ethoxy)carbonyl)amino)-1-methyl-1H-pyrazol-4-yl)-2-fluorophenyl)-2-oxabicyclo[2.2.2]octan-1-yl)acetic acid] are within 0.2 log units of each other in pIC50: 6.79 for the first, 6.95 for the second.

Compared with `C[C@@H](OC(=O)Nc1c(-c2ccc(C34CCC(CC(=O)O)(CC3)OC4)c(F)c2)cnn1C)c1ccccc1` [Example 30, 2-(4-(2-fluoro-4-(1-methyl-5-((((R)-1-phenylethoxy)carbonyl)amino)-1H-pyrazol-4-yl)phenyl)-2-oxabicyclo[2.2.2]octan-1-yl)acetic acid], `C[C@@H](OC(=O)Nc1c(-c2ccc(C34CCC(CC(=O)O)(CC3)OC4)cc2F)cnn1C)c1ccccc1Cl` [Example 32, 2-(4-(4-(5-((((R)-1-(2-chlorophenyl)ethoxy)carbonyl)amino)-1-methyl-1H-pyrazol-4-yl)-3-fluorophenyl)-2-oxabicyclo[2.2.2]octan-1-yl)acetic acid] is 0.50 log units higher in pIC50: 6.44 for the first, 6.94 for the second. The second is the more potent here.

`Cc1cc(C23CCC(CC(=O)O)(CC2)OC3)ccc1-c1cnn(C)c1NC(=O)O[C@H](C)c1ccccc1Cl` [Example 33, 2-(4-(4-(5-((((R)-1-(2-chlorophenyl)ethoxy)carbonyl)amino)-1-methyl-1H-pyrazol-4-yl)-3-methylphenyl)-2-oxabicyclo[2.2.2]octan-1-yl)acetic acid] and `Cc1noc(-c2ccc(C34CCC(CC(=O)O)(CC3)CO4)cc2)c1NC(=O)O[C@H](C)c1ccccc1Cl` [Example 48, 2-(1-(4-(4-((((R)-1-(2-chlorophenyl)ethoxy)carbonyl)amino)-3-methyl-isoxazol-5-yl)phenyl)-2-oxabicyclo[2.2.2]octan-4-yl)acetic acid] are within 0.2 log units of each other in pIC50: 6.27 for the first, 6.45 for the second.

Going from `Cn1ncc(-c2ccc(C34CCC(CC(=O)O)(CC3)OC4)cc2)c1COC(=O)N1CC[C@H](F)C1` [Example 38, 2-(4-(4-(5-((((S)-3-fluoropyrrolidine-1-carbonyl)oxy)methyl)-1-methyl-1H-pyrazol-4-yl)phenyl)-2-oxabicyclo[2.2.2]octan-1-yl)acetic acid] to `CC(C)CCN(C)C(=O)OCc1c(-c2ccc(C34CCC(CC(=O)O)(CC3)OC4)cc2)cnn1C` [Example 39, 2-(4-(4-(5-(((isopentyl(methyl)carbamoyl)oxy)methyl)-1-methyl-1H-pyrazol-4-yl)phenyl)-2-oxabicyclo[2.2.2]octan-1-yl)acetic acid], the pIC50 rises from 5.72 to 6.28 (0.56 log units). The second is the more potent here.

Going from `CN(Cc1ccccc1)C(=O)OCc1c(-c2ccc(C34CCC(CC(=O)O)(CC3)OC4)cc2)cnn1C` [Example 40, 2-(4-(4-(5-(((benzyl(methyl)carbamoyl)oxy)methyl)-1-methyl-1H-pyrazol-4-yl)phenyl)-2-oxabicyclo[2.2.2]octan-1-yl)acetic acid] to `CN(CCc1ccc(Cl)cc1)C(=O)OCc1c(-c2ccc(C34CCC(CC(=O)O)(CC3)OC4)cc2)cnn1C` [Example 41, 2-(4-(4-(5-((((4-chlorophenethyl)(methyl)carbamoyl)oxy)methyl)-1-methyl-1H-pyrazol-4-yl)phenyl)-2-oxabicyclo[2.2.2]octan-1-yl)acetic acid], the pIC50 falls from 6.12 to 5.55 (0.57 log units).

Going from `CN(C(=O)OCc1c(-c2ccc(C34CCC(CC(=O)O)(CC3)OC4)c(F)c2)cnn1C)C1CCCC1` [Example 42, 2-(4-(4-(5-(((cyclopentyl(methyl)carbamoyl)oxy)methyl)-1-methyl-1H-pyrazol-4-yl)-2-fluorophenyl)-2-oxabicyclo[2.2.2]octan-1-yl)acetic acid] to `CN(C(=O)OCc1c(-c2ccc(C34CCC(CC(=O)O)(CC3)OC4)cc2F)cnn1C)C1CCCC1` [Example 44, 2-(4-(4-(5-(((cyclopentyl(methyl)carbamoyl)oxy)methyl)-1-methyl-1H-pyrazol-4-yl)-3-fluorophenyl)-2-oxabicyclo[2.2.2]octan-1-yl)acetic acid], the pIC50 falls from 6.63 to 5.73 (0.90 log units). The first is the more potent here.

Compared with `CC(C)CCN(C)C(=O)OCc1c(-c2ccc(C34CCC(CC(=O)O)(CC3)OC4)c(F)c2)cnn1C` [Example 43, 2-(4-(2-fluoro-4-(5-(((isopentyl(methyl)carbamoyl)oxy)methyl)-1-methyl-1H-pyrazol-4-yl)phenyl)-2-oxabicyclo[2.2.2]octan-1-yl)acetic acid], `CC(C)CCN(C)C(=O)OCc1c(-c2ccc(C34CCC(CC(=O)O)(CC3)OC4)cc2F)cnn1C` [Example 45, 2-(4-(3-fluoro-4-(5-(((isopentyl(methyl)carbamoyl)oxy)methyl)-1-methyl-1H-pyrazol-4-yl)phenyl)-2-oxabicyclo[2.2.2]octan-1-yl)acetic acid] is 0.62 log units lower in pIC50: 6.57 for the first, 5.95 for the second. The first is the more potent here.

Compared with `Cc1noc(-c2ccc(C34CCC(CC(=O)O)(CC3)CO4)cc2)c1NC(=O)O[C@H](C)C1CC1` [Example 47, 2-(1-(4-(4-((((R)-1-cyclopropylethoxy)carbonyl)amino)-3-methylisoxazol-5-yl)phenyl)-2-oxabicyclo[2.2.2]octan-4-yl)acetic acid], `Cc1noc(-c2ccc(C34CCC(CC(=O)O)(CC3)CO4)c(F)c2)c1NC(=O)O[C@H](C)C1CC1` [Example 51, 2-(1-(4-(4-((((R)-1-cyclopropylethoxy)carbonyl)amino)-3-methylisoxazol-5-yl)-2-fluorophenyl)-2-oxabicyclo[2.2.2]octan-4-yl)acetic acid] is 0.42 log units higher in pIC50: 6.23 for the first, 6.65 for the second.

Compared with `Cc1ccccc1[C@@H](C)OC(=O)Nc1c(C)noc1-c1ccc(C23CCC(CC(=O)O)(CC2)CO3)cc1` [Example 49, 2-(1-(4-(3-methyl-4-((((R)-1-(o-tolyl)ethoxy)carbonyl)amino)isoxazol-5-yl)phenyl)-2-oxabicyclo[2.2.2]octan-4-yl)acetic acid], `Cc1noc(-c2ccc(C34CCC(CC(=O)O)(CC3)CO4)cc2)c1NC(=O)O[C@H](C)c1ccccc1F` [Example 52, 2-(1-(4-(4-((((R)-1-(2-fluorophenyl)ethoxy)carbonyl)amino)-3-methyl-isoxazol-5-yl)phenyl)-2-oxabicyclo[2.2.2]octan-4-yl)acetic acid] is 0.35 log units higher in pIC50: 6.52 for the first, 6.87 for the second. The second is the more potent here.

Compared with `Cc1noc(-c2ccc(C34CCC(CC(=O)O)(CC3)CO4)c(F)c2)c1NC(=O)O[C@H](C)c1ccccc1` [Example 50, 2-(1-(2-fluoro-4-(3-methyl-4-((((R)-1-phenylethoxy)carbonyl)amino)isoxazol-5-yl)phenyl)-2-oxabicyclo[2.2.2]octan-4-yl)acetic acid], `Cc1noc(-c2ccc(C34CCC(CC(=O)O)(CC3)CO4)cc2)c1COC(=O)N(C)C1CCCC1` [Example 53, 2-(1-(4-(4-(((cyclopentyl(methyl)carbamoyl)oxy)methyl)-3-methylisoxazol-5-yl)phenyl)-2-oxabicyclo[2.2.2]octan-4-yl)acetic acid] is 1.65 log units lower in pIC50: 7.24 for the first, 5.59 for the second.
